Results published in PubChem BioAssay (NCI).
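Cells were grown in 96-well plates and exposed to each compound for 48 hours at five concentrations; endpoints were interpolated linearly between bracketing concentrations, or set to the highest concentration if not reached. At the TGI there is no net growth.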

Columns and labels:
Assay in all cases: NCI anticancer screen, dose series, 48 h
[1] = system: MCF7 breast
[2] = system: HCT-15 colon
[3] = system: UACC-257 melanoma
[4] = system: COLO 205 colon
[5] = system: CAKI-1 renal
[6] = system: A498 renal
[7] = system: CCRF-CEM leukemia
[8] = system: ACHN renal
[9] = system: KM12 colon
[10] = system: MALME-3M melanoma

| SMILES | TGI [1] [µM] | TGI [2] [µM] | TGI [3] [µM] | TGI [4] [µM] | TGI [5] [µM] | TGI [6] [µM] | TGI [7] [µM] | TGI [8] [µM] | TGI [9] [µM] | TGI [10] [µM] |
| --- | --- | --- | --- | --- | --- | --- | --- | --- | --- | --- |
| CCOC(=O)c1ccc(Nc2c3c(nc4ccccc24)CCCC3)cc1 | > 100 | > 100 | > 100 | > 100 | > 100 | > 92.2 | > 100 | > 100 | > 100 |  |
| C[n+]1c(-c2ccc(/C=N/NC(=N)N/N=C/c3ccc(-c4cn5cc(Cl)ccc5[n+]4C)cc3)cc2)cn2cc(Cl)ccc21 | > 100 | > 100 | > 100 | > 100 |  |  | > 100 | > 100 | > 100 |  |
| Cc1nc(C)c(C(=O)NNC(N)=S)cc1C(=O)NNC(N)=S | > 100 | > 100 | > 100 | > 100 | > 100 |  |  | > 100 | > 100 |  |
| O=C1c2ccc(O)cc2C(=O)c2ccc(O)cc21 |  | > 100 | > 100 | > 100 | > 100 | > 100 | > 100 | > 100 | > 100 | > 100 |
| COc1cc2c(c(OC)c1OC)-c1ccc(SC)c(=O)cc1[C@@H](NCc1ccc(C#N)cc1)CC2 |  | 0.0463 |  | 0.0128 | > 100 |  |  | > 100 |  | > 100 |
| COC(=O)/C(=C\Nc1cccc(C)n1)S(=O)(=O)c1ccc(C)cc1 | > 100 | > 100 | > 100 | 49.9 |  |  | > 100 | > 100 | 90.3 | > 100 |
| CC(=O)OCCOCn1c2c(c(=S)[nH]c1=O)CCC2 | > 100 | > 100 | > 100 | > 100 | > 100 |  | > 100 | > 100 | > 100 | > 100 |
| CC(C)(C)N=NNc1cn(C2OC(CO)C(O)C2O)c(=O)[nH]c1=O (configuration not stated) |  | > 100 | > 100 | > 100 | > 100 | > 100 | 95.4 | > 100 | > 100 | > 100 |
| COc1cc2c(cc1OC)C(C(CO)CO)N(CC(O)CCl)CC2 (configuration not stated) |  | > 100 | > 100 | > 100 | > 100 | > 100 | > 100 | > 100 | > 100 | > 100 |
| Cc1c(Cl)c2ccccc2n1S(=O)(=O)c1ccccc1 |  | > 100 | > 100 | > 100 | > 100 |  | > 100 | > 100 | > 100 | > 100 |
| CCc1cc(Cc2cc(Cl)c(NC(=O)C(=O)C3NC(=O)NC3=O)c(CC)c2)cc(Cl)c1NC(=O)C(=O)C1NC(=O)NC1=O (configuration not stated) |  | 35.6 | > 100 | > 100 | > 100 | > 100 | > 100 | > 100 | > 100 | > 100 |
| Cc1ccc(S(=O)(=O)N/N=C(\c2nc3ccc(Cl)cc3[nH]c2=O)C(O)c2cccc([N+](=O)[O-])c2)cc1 (configuration not stated) |  | > 100 | > 100 | > 100 | > 100 | > 100 | > 100 | > 100 | > 100 | > 100 |
| C[C@]12CCC(=O)C=C1CC[C@@H]1[C@@H]2[C@@H](O)C[C@@]2(C)[C@H]1CC[C@]2(O)C(=O)COC(=O)COCC(=O)O |  | > 100 | > 100 | > 100 | > 100 | > 100 | > 100 | > 100 | > 100 | > 100 |
| O=C(c1ccc(Cl)cc1)c1ccc(OCCCOc2ccc(C(=O)c3ccc(Cl)cc3)cc2)cc1 |  | > 100 | > 100 | > 100 | > 100 |  | > 100 | > 100 | > 100 | > 100 |
| CCC(CON(C)c1ccccc1)(SC)SC | > 100 | > 100 | > 100 | > 100 | > 100 |  | > 100 | > 100 | > 100 | > 100 |
| Oc1ccc(-c2nc(-c3cccnc3)c(-c3ccc(Cl)cc3)[nH]2)cc1O | 24.2 | 22.2 | 28.3 | 30.3 | 46.7 |  | > 100 | 26.1 | 21.2 | 27 |
| O=c1[nH]c(=O)n(C2OC(COP(=O)(O)OP(=O)(O)OC3OC(CO)C(O)C(O)C3O)C(O)C2O)cc1F (configuration not stated) |  | 11.5 | 48.9 | 7.14 | 18.3 | 7.43 | > 100 | 7.18 | 10.7 | 20.9 |
